Measured values as given in patent US20240043699A1, “DISPERSION AND COATINGS DERIVED THEREFROM” (UNIVERSITY OF MASSACHUSETTS, priority 2022, published 2024).

Assay: Krafft Temperature from electrical conductivity in water at various temperatures
Assay type: physicochemical
Conditions: electrical conductivity vs. temperature, sulfate
Method: In some embodiments, the surfactants useful for the present disclosure can have a high Krafft temperature. For example, exemplary surfactants can have a Krafft temperature of at least 50° C. […] Krafft temperature can be determined by, for example, measuring electrical conductivity in water at various temperatures, where the Krafft temperature is taken to be the inflection point when conductivity is plotted against temperature.
Krafft Temperature, the temperature at which an ionic surfactant begins to form micelles in water, is marked by a significant increase in solubility and therefore electrical conductivity for ionic surfactants. Electrical conductivities of the HMW Surfactant species were measured in water at various temperatures to determine Krafft Temperature.

Structure (SMILES): CCCCCCCCCCCCOS(=O)(=O)[O-].[Na+] [sodium dodecyl sulfate]
- Krafft Temperature (listed as SDS): 15 °C
- Krafft Temperature: roughly 15 °C
